From PMC11173382, “In Vitro Investigations into the Potential Drug Interactions of Pseudoginsenoside DQ Mediated by Cytochrome P450 and Human Drug Transporters” (Molecules, 2024)

Key:
[1] = biological target: T1, hOAT3 (Homo sapiens, UniProt Q8TCC7); test: Substrates uptake assay, S2-OAT3 cells (3H-ES); type: in vitro ADME; conditions: for Transport activity of OAT3 (main text: percentage inhibition): negative control = 100%
T1 sequence (Q8TCC7 1-542): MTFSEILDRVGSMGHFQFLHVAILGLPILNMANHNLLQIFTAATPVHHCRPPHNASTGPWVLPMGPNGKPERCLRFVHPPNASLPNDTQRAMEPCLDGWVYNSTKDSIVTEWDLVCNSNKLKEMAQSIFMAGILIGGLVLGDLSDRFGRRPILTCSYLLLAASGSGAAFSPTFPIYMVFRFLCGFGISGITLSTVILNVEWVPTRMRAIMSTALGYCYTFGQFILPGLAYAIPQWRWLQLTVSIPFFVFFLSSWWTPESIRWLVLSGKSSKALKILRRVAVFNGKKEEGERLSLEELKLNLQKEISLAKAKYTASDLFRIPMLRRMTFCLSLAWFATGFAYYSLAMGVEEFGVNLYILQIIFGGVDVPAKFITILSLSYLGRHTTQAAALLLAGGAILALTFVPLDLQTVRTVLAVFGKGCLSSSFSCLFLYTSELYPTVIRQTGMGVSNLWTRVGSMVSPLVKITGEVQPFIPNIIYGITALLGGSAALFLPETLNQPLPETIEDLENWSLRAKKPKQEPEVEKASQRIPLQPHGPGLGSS
From the text: (§1) Drug transporters mediate the cellular uptake and efflux of their substrates. Therefore, cell lines overexpressing a drug transporter can be utilized to investigate inhibitors of the transporter by assessing changes in substrate uptake. For each drug transporter, we selected a well-characterized inhibitor as the positive control. Radiolabeled substrates were used to indicate the decrease in transport efficiency when the drug transporters were inhibited by PDQ or the control inhibitors.
(§2) The concentrations of the control drugs and the substrates were stated in the assay details. Working solutions of the control inhibitors, the radiolabeled substrates, and each dose of PDQ were prepared at 200 times (200×) more concentrated solutions with DMSO for further dilution.
(§3) Transporter-overexpressed cell lines. Human organic anion transporter-overexpressed cell lines MDCKII-OAT1 and S2-OAT3, human organic anion transport polypeptide-overexpressed cell lines HEK293A-OATP1B1 and HEK293A-OATP1B3, human organic cation transporter 2-overexpressed cell line S2-OCT2, and human multi-drug resistance protein MDR1 (or P-gp)-overexpressed cell line MDCKII-MDR1 were gifts from Japan Fuji Biomedical Co., Ltd. (Fuji, Shizuoka Prefecture, Japan). Breast cancer resistance protein-overexpressed vesicles (sf9-BCRP vesicle) were purchased from GenoMembrane Co., Ltd. (Yokohama, Kanagawa, Japan).
(§4) Substrates uptake assay. In this assay, we studied the inhibition of PDQ against transporters OAT1, OAT3, OCT2, OATP1B1 and OATP1B3 with MDCKII-OAT1, S2-OAT3, S2-OCT2, HEK293A-OATP1B1and HEK293A-OATP1B3 cells, respectively. The radiolabeled substrates for OAT1, OAT3, OATP1B1, OATP1B3 and OCT2 were […], respectively (Table 5). Probenecid ([…]) was the positive control inhibitor of OAT1 and OAT3, while rifampicin ([…]) served as the control drug of OATP1B1 and OATP1B3. For OCT2, we used […] cimetidine to compare with the inhibitory effect of PDQ. Two times (2×) more concentrated working solutions of the drugs and the substrate were prepared with Dulbecco’s phosphate-buffered saline (DPBS, Gibco, Grand Island, NY, USA.). Then, an equal volume of 2× drug solution and 2× radiolabeled substrate solution were mixed as the working mix. All reagents were pre-warmed to 37 °C.
(§5) The cells were digested with 0.05% trypsin/EDTA. The density of the single-cell suspension was adjusted to 2.0 × 10^5 cells/mL for S2 cells and to 1.5 × 10^5 cells/mL for MDCK II and HEK293A cells. The cell suspension was then added to the reservoirs of the 24-well plate for culture until full confluency. The medium in the wells was removed, and the wells were washed with DPBS. Then, the plate was incubated for 10 min with pre-warmed DPBS in the wells. After removing DPBS, […] of working mix was added to each well to initiate the substrate uptake process. The reaction time was 5 min for S2-OCT2 cells, while the other four types of cells were incubated with the reaction mix for 2 min. Cold DPBS was used to terminate the substrate transportation. To each well, […] NaOH ([…]) was added to lyse the cells. Then, […] cell lysate was transferred to the counting vials, and 3 mL scintillation cocktail (Aquasol-2, PerkinElmer, Waltham, MA, USA) was added. […] Each sample was replicated three times (N = 3).
(§6) In = [100 × (U − U0)/(Uc − U0)]%(3)
The results were expressed as mean ± standard deviation (SD) and analyzed with GraphPad Prism 8.0 software (CA, USA). The IC50 of PDQ was curve-fitted with the FORECAST function. Statistical significance was calculated using a two-tailed test, and a p value < 0.05 was considered as significant.

[2] = biological target: T2, hOAT1 (Homo sapiens, UniProt Q4U2R8); test: Substrates uptake assay, MDCKII-OAT1 cells (14C-PAH); type: in vitro ADME
T2 sequence (Q4U2R8 1-563): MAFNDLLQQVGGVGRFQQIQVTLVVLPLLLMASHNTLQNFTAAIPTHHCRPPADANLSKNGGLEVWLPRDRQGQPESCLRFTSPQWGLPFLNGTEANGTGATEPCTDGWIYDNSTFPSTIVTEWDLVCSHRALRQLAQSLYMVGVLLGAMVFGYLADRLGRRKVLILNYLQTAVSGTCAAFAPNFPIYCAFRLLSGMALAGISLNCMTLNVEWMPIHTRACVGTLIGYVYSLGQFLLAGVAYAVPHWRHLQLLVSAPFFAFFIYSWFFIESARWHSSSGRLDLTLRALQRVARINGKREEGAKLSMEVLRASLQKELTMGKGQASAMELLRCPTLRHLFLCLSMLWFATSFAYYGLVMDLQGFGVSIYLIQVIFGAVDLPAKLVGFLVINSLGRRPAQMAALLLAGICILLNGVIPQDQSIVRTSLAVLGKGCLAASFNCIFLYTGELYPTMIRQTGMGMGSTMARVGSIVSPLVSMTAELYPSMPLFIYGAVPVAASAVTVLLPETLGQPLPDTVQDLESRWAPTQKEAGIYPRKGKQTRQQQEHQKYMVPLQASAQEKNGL
From the text: as §1, §2, §3, §4, §5, §6
The results were expressed as mean ± standard deviation (SD) and analyzed with GraphPad Prism 8.0 software (CA, USA). The IC50 of PDQ was curve-fitted with the FORECAST function.

CC(C)(O)[C@@H]1CC[C@@](C)([C@H]2CC[C@]3(C)[C@@H]2[C@H](O)C[C@@H]2[C@@]4(C)CC[C@H](O)C(C)(C)[C@@H]4CC[C@]23C)O1 [PDQ, (20S,24S)-dammar-20,24-epoxy-3β, 12β, 25-triol]
DPM (3H-ES uptake by OAT3) ([1]; inhibitor 0.1 μM): 7893.7±359.2 DPM
Transport activity of OAT3 (main text: percentage inhibition) ([1]; inhibitor 0.1 μM): 99.5±4.5%
DPM (3H-ES uptake by OAT3) ([1]; inhibitor 0.3 μM): 7623.7±652.1 DPM
Transport activity of OAT3 (main text: percentage inhibition) ([1]; inhibitor 0.3 μM): 96.1±8.2%
DPM (3H-ES uptake by OAT3) ([1]; inhibitor 1 μM): 7285.3±273.2 DPM
Transport activity of OAT3 (main text: percentage inhibition) ([1]; inhibitor 1 μM): 91.8±3.4%
DPM (3H-ES uptake by OAT3) ([1]; inhibitor 3 μM): 7192.7±157.6 DPM
Transport activity of OAT3 (main text: percentage inhibition) ([1]; inhibitor 3 μM): 90.6±2.0%
DPM (3H-ES uptake by OAT3) ([1]; inhibitor 10 μM): 4919.0±360.3 DPM
Transport activity of OAT3 (main text: percentage inhibition) ([1]; inhibitor 10 μM): 62.0±4.5%
DPM (3H-ES uptake by OAT3) ([1]; inhibitor 30 μM): 4541.3±532.8 DPM
IC50 ([2]; MDCKII-OAT1, 14C-PAH 5 µM, 2 min): > 30 µM
DPM (14C-PAH uptake by OAT1) ([2]; inhibitor 0.1 μM): 540.3±39.2 DPM
DPM (14C-PAH uptake by OAT1) ([2]; inhibitor 0.3 μM): 566.0±44.8 DPM
DPM (14C-PAH uptake by OAT1) ([2]; inhibitor 1 μM): 547.7±68.8 DPM
DPM (14C-PAH uptake by OAT1) ([2]; inhibitor 3 μM): 496.3±38.1 DPM
DPM (14C-PAH uptake by OAT1) ([2]; inhibitor 10 μM): 558.7±19.7 DPM
DPM (14C-PAH uptake by OAT1) ([2]; inhibitor 30 μM): 460.3±5.7 DPM
